As a reminder, the pIC50 is −log10 of the IC50, conventionally taken in molar units. Higher therefore signals a low IC50. A word on the inhibition: it is the change of the read-out against control, counted positive when it falls.

pIC50: −log10 of the molar value.

For assay [1], the system named is U-937. Description: Antiproliferative activity against human U937 cells after 24 hrs by WST-8 assay. Type of assay: functional, cell-based. The note with it: U-937, 24 h.
Assay [2] deals with U-937. Description: Antiproliferative activity against human U937 cells after 48 hrs by WST-8 assay. In kind it is functional, cell-based. The conditions noted are these: U-937, 48 h. Background: Formazan colour is commonly taken as a measure of viable cells.
Assay [3] has as its system U-937. Description: Antiproliferative activity against human U937 cells after 72 hrs by WST-8 assay. In kind it is functional, cell-based. The note with it: U-937, 72 h.
The subject of assay [4] is HT-1080. In words: Inhibition of invasion of human HT1080 cells at 1 uM after 24 hrs. In kind it is functional. The conditions noted are these: HT-1080, 24 h.
Assay [5] deals with HT-1080. Description: Inhibition of invasion of human HT1080 cells at 3 uM after 24 hrs. Type of assay: functional. The note with it: HT-1080, 24 h.
In assay [6] the test system is HT-1080. In words: Inhibition of invasion of human HT1080 cells at 10 uM after 24 hrs. The note with it: HT-1080, 24 h. In kind it is functional.
The test system of assay [7] is HT-1080. Description: Inhibition of invasion of human HT1080 cells at 30 uM after 24 hrs. The conditions noted are these: HT-1080, 24 h. Type of assay: functional.
Assay [8] deals with HT-1080. In words: Antiproliferative activity against human HT1080 cells at 1 uM after 24 hrs by MTT assay. Type of assay: functional. The conditions noted are these: HT-1080, 24 h.
In assay [9] the test system is HT-1080. In words: Antiproliferative activity against human HT1080 cells at 3 uM after 24 hrs by MTT assay. In kind it is functional. The note with it: HT-1080, 24 h.
Assay [10] has as its system HT-1080. In words: Antiproliferative activity against human HT1080 cells at 10 uM after 24 hrs by MTT assay. The conditions noted are these: HT-1080, 24 h. Type of assay: functional.
Assay [11] has as its system HT-1080. In words: Antiproliferative activity against human HT1080 cells at 30 uM after 24 hrs by MTT assay. Type of assay: functional. The note with it: HT-1080, 24 h.
The subject of assay [12] is HT-1080. In words: Antiproliferative activity against human HT1080 cells at 1 uM after 48 hrs by MTT assay. In kind it is functional. The note with it: HT-1080, 48 h.
The subject of assay [13] is HT-1080. Description: Antiproliferative activity against human HT1080 cells at 3 uM after 48 hrs by MTT assay. In kind it is functional. The conditions noted are these: HT-1080, 48 h.
In assay [14] the test system is HT-1080. Description: Antiproliferative activity against human HT1080 cells at 10 uM after 48 hrs by MTT assay. Type of assay: functional. The note with it: HT-1080, 48 h.
Assay [15] deals with HT-1080. In words: Antiproliferative activity against human HT1080 cells at 30 uM after 48 hrs by MTT assay. Type of assay: functional. The note with it: HT-1080, 48 h.
Assay [16] relates to HT-1080. In words: Antiproliferative activity against human HT1080 cells at 1 uM after 72 hrs by MTT assay. In kind it is functional. The note with it: HT-1080, 72 h.
Assay [17] relates to HT-1080. Description: Antiproliferative activity against human HT1080 cells at 3 uM after 72 hrs by MTT assay. In kind it is functional. The note with it: HT-1080, 72 h.
The subject of assay [18] is HT-1080. Description: Antiproliferative activity against human HT1080 cells at 10 uM after 72 hrs by MTT assay. In kind it is functional. The conditions noted are these: HT-1080, 72 h.
Assay [19] deals with HT-1080. Description: Antiproliferative activity against human HT1080 cells at 30 uM after 72 hrs by MTT assay. Type of assay: functional. The note with it: HT-1080, 72 h.
For assay [20], the system named is HT-1080. In words: Antiproliferative activity against human HT1080 cells at 1 uM after 24 hrs by calcein-AM assay. Type of assay: functional. The note with it: HT-1080, 24 h.
The test system of assay [21] is HT-1080. Description: Antiproliferative activity against human HT1080 cells at 3 uM after 24 hrs by calcein-AM assay. In kind it is functional. The note with it: HT-1080, 24 h.
Assay [22] deals with HT-1080. In words: Antiproliferative activity against human HT1080 cells at 10 uM after 24 hrs by calcein-AM assay. In kind it is functional. The note with it: HT-1080, 24 h.
Assay [23] concerns HT-1080. In words: Antiproliferative activity against human HT1080 cells at 30 uM after 24 hrs by calcein-AM assay. In kind it is functional. The conditions noted are these: HT-1080, 24 h.
Assay [24] has as its system HT-1080. Description: Antiproliferative activity against human HT1080 cells at 1 uM after 48 hrs by calcein-AM assay. In kind it is functional. The conditions noted are these: HT-1080, 48 h.
Assay [25] has as its system HT-1080. Description: Antiproliferative activity against human HT1080 cells at 3 uM after 48 hrs by calcein-AM assay. In kind it is functional. The note with it: HT-1080, 48 h.
Assay [26] relates to HT-1080. Description: Antiproliferative activity against human HT1080 cells at 10 uM after 48 hrs by calcein-AM assay. Type of assay: functional. The note with it: HT-1080, 48 h.
Assay [27] concerns HT-1080. Description: Antiproliferative activity against human HT1080 cells at 30 uM after 48 hrs by calcein-AM assay. The conditions noted are these: HT-1080, 48 h. In kind it is functional.
Assay [28] has as its system HT-1080. Description: Antiproliferative activity against human HT1080 cells at 1 uM after 72 hrs by calcein-AM assay. In kind it is functional. The note with it: HT-1080, 72 h.
Assay [29] deals with HT-1080. In words: Antiproliferative activity against human HT1080 cells at 3 uM after 72 hrs by calcein-AM assay. In kind it is functional. The note with it: HT-1080, 72 h.
Assay [30] deals with HT-1080. Description: Antiproliferative activity against human HT1080 cells at 10 uM after 72 hrs by calcein-AM assay. Type of assay: functional. The note with it: HT-1080, 72 h.
For assay [31], the system named is HT-1080. Description: Antiproliferative activity against human HT1080 cells at 30 uM after 72 hrs by calcein-AM assay. Type of assay: functional. The note with it: HT-1080, 72 h.

In the case of `CC1(C)C=Cc2c(cc3occ(-c4ccc(O)cc4)c(=O)c3c2O)O1` [ALPINUMISOFLAVONE], the negative logarithm of the IC50 (pIC50) was 4.46 in the assay with U-937 [1], 4.49 in the assay on U-937 [2] and 4.55 in the assay with U-937 [3].
For `COc1cc(OC)c2c(c1)O[C@H](c1ccc(O)cc1)CC2`, in that order: 4.41, 4.40 and 5.00.
With `CC(=O)O[C@H]1C(=O)[C@@]2(C)[C@H]([C@H](OC(=O)c3ccccc3)[C@]3(O)C[C@H](OC(=O)[C@H](O)[C@@H](NC(=O)c4ccccc4)c4ccccc4)C(C)=C1C3(C)C)[C@]1(OC(C)=O)CO[C@@H]1C[C@@H]2O` [PACLITAXEL], the inhibition at 1 µM in the assay with HT-1080 [4] is 50.5%; in the assay on HT-1080 [8] it was 4.7%; in the assay on HT-1080 [12] it was 43.7%; in the assay with HT-1080 [16], 65.6%; with HT-1080 [20], -0.5%; in the assay on HT-1080 [24], 46.2%. In addition, in the assay with HT-1080 [28], the inhibition at 1 µM is 59.8%. For the same molecule, the inhibition at 3 µM in the assay on HT-1080 [5] is 79.8%; in the assay on HT-1080 [9], 12.6%; in the assay with HT-1080 [13], 48.7%; in the assay with HT-1080 [17], 79.8%; in the assay on HT-1080 [21], 10.8%; in the assay with HT-1080 [25] it was 64.4%. Further, the inhibition at 3 µM in the assay with HT-1080 [29] was 87%. For the same molecule, the inhibition at 10 µM with HT-1080 [6] is 87.8%; with HT-1080 [10], 12.2%; in the assay on HT-1080 [14], 50%; in the assay on HT-1080 [18] it was 81.4%; with HT-1080 [22] it was 12.4%; in the assay with HT-1080 [26], 70.9%. The inhibition at 10 µM in the assay with HT-1080 [30] was 87.6%. The inhibition at 30 µM in the assay with HT-1080 [7] is 89.2%; in the assay on HT-1080 [11], 10.3%; with HT-1080 [15], 50.3%; in the assay on HT-1080 [19], 79.9%; with HT-1080 [23] it was 10.3%; with HT-1080 [27], 70%. In the assay with HT-1080 [31], the inhibition at 30 µM is 87.7%.
Regarding `COc1ccc2c(c1)O[C@H]1c3ccc(OC)cc3OC[C@@H]21` [HOMOPTEROCARPIN], the negative-log IC50 (pIC50) in the assay on U-937 [1], in the assay with U-937 [2] and with U-937 [3] was under 4.00 in each case.
Take `COc1ccc(-c2coc3cc(O)ccc3c2=O)cc1O` [CALYCOSIN]: the pIC50 was 4.31 in the assay on U-937 [1], 4.32 with U-937 [2] and 4.37 with U-937 [3].
Take `COc1ccc([C@@H]2CCc3c(OC)cc(OC)cc3O2)c(O)c1` [ERYCEBENIN E]: the values for the negative logarithm of the IC50 (pIC50) with U-937 [1], with U-937 [2] and in the assay on U-937 [3] were 4.43, 5.37 and 5.54, respectively.
As for `CC(C)(O)[C@@H](O)Cc1c(O)cc(O)c2c(=O)c(-c3ccc(O)cc3)coc12` [ERYCIBENIN B], the negative-log IC50 (pIC50) in the assay on U-937 [1], in the assay with U-937 [2] and in the assay with U-937 [3] was under 4.00 throughout.
As to `Oc1ccc2c(c1)OC[C@H]1c3cc4c(cc3O[C@@H]21)OCO4` [MAACKIAIN], the pIC50 in the assay with U-937 [1], in the assay with U-937 [2] and in the assay on U-937 [3] was under 4.00 each time.
Turning to `CC(C)=CCc1c(O)cc2occ(-c3ccc(O)cc3)c(=O)c2c1O` [WIGHTEONE], the figures for the negative logarithm of the IC50 (pIC50) with U-937 [1], in the assay on U-937 [2] and in the assay on U-937 [3] were 4.55, 4.46 and 4.49, respectively.
On the same counts, the results for `O=C1C=C2OC[C@H]3c4cc5c(cc4O[C@H]3[C@@]2(O)CC1)OCO5` are under 4.00, under 4.00 and under 4.00.
For `COc1ccc(-c2coc3cc(O)ccc3c2=O)cc1` [FORMONONETIN], in that order: 4.30, 4.36 and 4.35.
For `COc1ccc2c(c1)O[C@@H]1[C@H]2COC2=CC(=O)CC[C@@]21O`, in that order: under 4.00, under 4.00 and under 4.00.
`O=c1cc(-c2ccc(O)c(O)c2)oc2cc(O)cc(O)c12` [LUTEOLIN]: the figures for the pIC50 in the assay on U-937 [1], in the assay on U-937 [2] and in the assay with U-937 [3] were 4.44, 4.55 and 4.70, respectively.
On the same counts, the results for `COc1cc([C@H]2Oc3cc(O)ccc3C(=O)[C@@H]2O)ccc1O` [ERYCIBENIN D] are under 4.00, under 4.00 and under 4.00.
